Values joined by “and” are separate entries in the source; they are usually repeats but may differ in a detail not shown here. Equal values may be shown once. Inconclusive results are not listed.
System: BDF1 mice, colon carcinoma 38 sc, T/C %
Experiment: NCI In Vivo Anticancer Drug Screen. Data for tumor model Colon Carcinoma 38 (subcutaneous) in B6D2F1 (BDF1) mice
Settings: endpoint: median tumor weight (est.), higher = larger tumour
Method in brief: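 Mice with transplanted tumors are treated with compound or vehicle. Survival or tumor size is then measured in both groups. The ratio of treated to control gives the reported figure.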

[1] = dose: 25.0 mg/kg/injection, schedule: Q07DX002 (ip), vehicle: Klucel (hydroxypropylcellulose) (HPC)
[2] = dose: 400.0 mg/kg/injection, schedule: Q07DX002 (ip), vehicle: Klucel (hydroxypropylcellulose) (HPC)
[3] = dose: 12.5 mg/kg/injection, schedule: Q07DX002 (ip), vehicle: Klucel (hydroxypropylcellulose) (HPC)
[4] = dose: 50.0 mg/kg/injection, schedule: Q07DX002 (ip), vehicle: Klucel (hydroxypropylcellulose) (HPC)
[5] = dose: 12.5 mg/kg/injection, schedule: Q07DX003 (ip), vehicle: saline
[6] = dose: 25.0 mg/kg/injection, schedule: Q07DX003 (ip), vehicle: saline
[7] = dose: 100.0 mg/kg/injection, schedule: Q07DX003 (ip), vehicle: saline

CCC12C[N+]3([O-])CCc4c([nH]c5ccccc45)C(C(=O)OC)(c4cc5c(cc4OC)N(C)C4C(O)(C(=O)OC)C(OC(C)=O)C6(CC)C=CCN7CCC54C76)CC(C3)C1O2 (stereo not drawn)
T/C (dose: 1.25 mg/kg/injection, schedule: Q07DX002 (ip), vehicle: water): 113 % of control | T/C (dose: 2.5 mg/kg/injection, schedule: Q07DX002 (ip), vehicle: water): 90 % of control | T/C (dose: 5.0 mg/kg/injection, schedule: Q07DX002 (ip), vehicle: water): 84 % of control | T/C (dose: 10.0 mg/kg/injection, schedule: Q07DX002 (ip), vehicle: water): 108 % of control | T/C (dose: 20.0 mg/kg/injection, schedule: Q07DX002 (ip), vehicle: water): 82 % of control | T/C (dose: 40.0 mg/kg/injection, schedule: Q07DX002 (ip), vehicle: water): 94 % of control

COc1cc2c[n+](C)c3c4cc5c(cc4ccc3c2cc1OC)OCO5
T/C (dose: 20.0 mg/kg/injection, schedule: Q07DX003 (ip), vehicle: saline with Tween-80): 110 % of control | T/C (dose: 40.0 mg/kg/injection, schedule: Q07DX003 (ip), vehicle: saline with Tween-80): 97 % of control

COC(=O)C[C@](O)(CCCC(C)(C)O)C(=O)O[C@@H]1C(OC)=C[C@]23CCCN2CCc2cc4c(cc2[C@H]13)OCO4
T/C (dose: 0.25 mg/kg/injection, schedule: Q07DX003 (ip), vehicle: saline): 93 % of control | T/C (dose: 0.5 mg/kg/injection, schedule: Q07DX003 (ip), vehicle: saline): 95 % of control | T/C (dose: 1.0 mg/kg/injection, schedule: Q07DX003 (ip), vehicle: saline): 64 % of control | T/C (dose: 2.0 mg/kg/injection, schedule: Q07DX003 (ip), vehicle: saline): 53 % of control

C/C(=N/NC(N)=S)c1ccc2ccccc2c1
T/C (dose: 6.25 mg/kg/injection, schedule: Q07DX002 (ip), vehicle: saline with Tween-80): 111 % of control | T/C (dose: 12.5 mg/kg/injection, schedule: Q07DX002 (ip), vehicle: saline with Tween-80): 63 % of control | T/C (dose: 25.0 mg/kg/injection, schedule: Q07DX002 (ip), vehicle: saline with Tween-80): 70 % of control and 80 % of control | T/C (dose: 100.0 mg/kg/injection, schedule: Q07DX002 (ip), vehicle: saline with Tween-80): 31 % of control and 48 % of control

CSc1nc(=O)[nH]nc1SCc1ccccc1
T/C [1]: 151 % of control and 169 % of control | T/C [2]: 65 % of control

Nc1ccccc1N
T/C [3]: 75 % of control and 91 % of control | T/C [1]: 122 % of control and 102 % of control | T/C [4]: 91 % of control | T/C [2]: 54 % of control

O=[N+]([O-])O.[Ga]
T/C [5]: 122 % of control | T/C (dose: 25.0 mg/kg/injection, schedule: Q07DX002 (ip), vehicle: saline): 159 % of control | T/C [6]: 121 % of control | T/C (dose: 50.0 mg/kg/injection, schedule: Q07DX002 (ip), vehicle: saline): 78 % of control | T/C (dose: 100.0 mg/kg/injection, schedule: Q07DX002 (ip), vehicle: saline): 81 % of control | T/C [7]: 44 % of control

CC1=C2CC(C)(C)/C=C\C(=O)/C(C)=C\C3=C[C@H](C)C[C@]3(O2)C1=O
T/C (dose: 1.5 mg/kg/injection, schedule: Q07DX002 (ip), vehicle: Klucel (hydroxypropylcellulose) (HPC)): 80 % of control | T/C (dose: 3.0 mg/kg/injection, schedule: Q07DX002 (ip), vehicle: Klucel (hydroxypropylcellulose) (HPC)): 100 % of control | T/C (dose: 6.0 mg/kg/injection, schedule: Q07DX002 (ip), vehicle: Klucel (hydroxypropylcellulose) (HPC)): 157 % of control

CC[C@](O)(C(=O)O)c1cc2n(c(=O)c1CO)Cc1cc3ccccc3nc1-2
T/C (dose: 6.25 mg/kg/injection, schedule: Q07DX003 (ip), vehicle: saline): 48 % of control and 62 % of control | T/C [5]: 38 % of control and 60 % of control | T/C [6]: 34 % of control and 41 % of control and 54 % of control | T/C (dose: 50.0 mg/kg/injection, schedule: Q07DX003 (ip), vehicle: saline): 23 % of control and 26 % of control and 45 % of control | T/C [7]: 9 % of control

COc1ccc(CC2C(=O)NC(C)C(=O)N(C)C3C(=O)N(C)C(Cc4ccc(O)c(c4)Oc4ccc(cc4)C3O)C(=O)NC(C)C(=O)NC(C)C(=O)N2C)cc1 (stereo not drawn)
T/C (dose: 0.5 mg/kg/injection, schedule: Q07DX003 (ip), vehicle: Klucel (hydroxypropylcellulose) (HPC)): 98 % of control | T/C (dose: 1.0 mg/kg/injection, schedule: Q07DX003 (ip), vehicle: Klucel (hydroxypropylcellulose) (HPC)): 106 % of control | T/C (dose: 4.0 mg/kg/injection, schedule: Q07DX003 (ip), vehicle: Klucel (hydroxypropylcellulose) (HPC)): 182 % of control | T/C (dose: 8.0 mg/kg/injection, schedule: Q07DX003 (ip), vehicle: Klucel (hydroxypropylcellulose) (HPC)): 159 % of control | T/C (dose: 16.0 mg/kg/injection, schedule: Q07DX003 (ip), vehicle: Klucel (hydroxypropylcellulose) (HPC)): 44 % of control

Cc1cc(C)c(-c2cc(O)c(C)cc2O)c(C)c1
T/C [3]: 83 % of control | T/C [4]: 82 % of control

Reference: PubChem BioAssay AID212 (DTP/NCI, 2004)
